Data from patent US6277851A, “Bicyclic amino-pyrazinone compounds” (priority 1999, dated 2001).
Counter-ions that a name gives are not always drawn.

Legend:
human plasma [1] = assay: Anti-coagulant activity, thrombin time (TT) in human plasma; type: biochemical; conditions: 37° C.
Experimental: (§1) In order to evaluate the anti-coagulant activity of the compounds of the invention, the thrombin time (TT) and activated cephalin time (ACT) were determined from human plasma samples. An ST4 coagulometer (Diagnostica Stago, France) was used. Plasma, deficient in platelets and lyophilised (Stago), is taken up in distilled water. The TT is obtained using the reagent Prest Thrombin and the ACT using the reagent PTT Automate […]. […] Under those conditions, the TT is of the order of 18 seconds and the ACT is of the order of 12 seconds. The activity of an antagonist is evaluated by its capacity to prolong the TT and the ACT relative to the control. The effect of the inhibitors is expressed by the concentration in μM that doubles the coagulation time (Ctt2).

human plasma [2] = assay: Anti-coagulant activity, activated cephalin time (ACT) in human plasma; type: biochemical; conditions: 37° C.
Experimental: as §1

human thrombin = target: T1, human thrombin (Homo sapiens, UniProt P00734); assay: Inhibition of human thrombin (fibrinogen substrate, fibrin formation); type: biochemical; conditions: human thrombin 0.7 nM, 10 min preincubation, 20° C., pH 7.4
T1 construct: purchased Sigma
Experimental: (§2) Inhibitors, enzymes and substrates are diluted in the same buffer ([…] phosphate buffer, pH 7.4, containing 0.12 M sodium chloride and 0.05% of bovine serum albumin) and then distributed on a polystyrene microtitre plate in a volume of 50 μl. The fibrin formed by the thrombin or by the paranitroanilide released by the action of the serine protease is measured using a spectrophotometer at 405 nm after from 15 to 30 minutes' reaction at 20° C. Table 2 below gives in nM the concentration of the compounds that inhibits 50% of the enzymatic activity (IC50) of the thrombin compared with the control without product.

dog plasma [3] = assay: Anti-coagulant activity after administration per os to dogs, TT; type: in vivo; conditions: p.o.
Experimental: (§3) […] The coagulation times (TT, ACT) are determined from dog plasma samples 10 minutes before and 30 min, 1 hour, 2 hours, 4 hours and 6 hours after administration of the products.

dog plasma [4] = assay: Anti-coagulant activity after administration per os to dogs, ACT; type: in vivo; conditions: p.o.
Experimental: as §3

human plasmin = target: T2, human plasmin (Homo sapiens, UniProt P00747); assay: Inhibition of fibrinolysis serine proteases: plasmin; type: biochemical; conditions: human plasmin 2 nM, substrate S 2403 0.50 mM, 20° C., pH 7.4
T2 construct: purchased Stago
Experimental: as §2, with “Table 3” for “Table 2”, “the fibrinolysis proteases.” for “the thrombin compared with the control without product.”

t-PA = t-PA (Homo sapiens, UniProt P00750); assay: Inhibition of fibrinolysis serine proteases: t-PA; type: biochemical; conditions: fibrinolysis protease
Experimental: as §2, with “Table 3” for “Table 2”, “the fibrinolysis proteases.” for “the thrombin compared with the control without product.”

uPA = uPA (Homo sapiens, UniProt P00749); assay: Inhibition of fibrinolysis serine proteases: uPA; type: biochemical; conditions: fibrinolysis protease
Experimental: as §2, with “Table 3” for “Table 2”, “the fibrinolysis proteases.” for “the thrombin compared with the control without product.”

T2 sequence (P00747 581-810 limits assumed): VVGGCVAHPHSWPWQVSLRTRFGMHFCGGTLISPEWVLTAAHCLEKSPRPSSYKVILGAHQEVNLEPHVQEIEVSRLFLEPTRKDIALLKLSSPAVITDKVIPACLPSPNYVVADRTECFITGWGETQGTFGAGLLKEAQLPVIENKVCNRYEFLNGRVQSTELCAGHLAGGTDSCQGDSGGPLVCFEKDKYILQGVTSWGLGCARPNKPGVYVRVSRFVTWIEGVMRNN
t-PA, sequence (P00750 36-562): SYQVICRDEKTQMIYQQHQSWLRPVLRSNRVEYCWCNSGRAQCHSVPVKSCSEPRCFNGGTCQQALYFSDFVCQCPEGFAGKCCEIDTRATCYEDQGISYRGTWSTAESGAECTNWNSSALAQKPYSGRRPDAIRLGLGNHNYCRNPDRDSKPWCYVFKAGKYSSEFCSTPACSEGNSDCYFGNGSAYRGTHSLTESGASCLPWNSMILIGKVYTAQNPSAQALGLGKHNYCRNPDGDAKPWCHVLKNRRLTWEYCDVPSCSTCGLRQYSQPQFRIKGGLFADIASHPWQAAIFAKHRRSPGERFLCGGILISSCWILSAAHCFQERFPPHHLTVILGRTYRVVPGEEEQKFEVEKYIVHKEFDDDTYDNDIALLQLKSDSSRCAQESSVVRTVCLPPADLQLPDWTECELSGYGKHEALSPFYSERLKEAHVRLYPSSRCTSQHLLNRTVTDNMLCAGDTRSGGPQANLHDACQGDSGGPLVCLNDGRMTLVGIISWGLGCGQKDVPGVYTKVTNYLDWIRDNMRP

| SMILES | TT Ctt2 (concentration that doubles the coagulation time) (human plasma [1]) | ACT Ctt2 (concentration that doubles the coagulation time) (human plasma [2]) | IC50 (human thrombin) | Maximum TT increase (number of times by which the initial time has been increased) (dog plasma [3]; 3 mg/kg) | Maximum ACT increase (number of times by which the initial time has been increased) (dog plasma [4]; 3 mg/kg) | IC50 (human plasmin) | IC50 (t-PA) | IC50 (uPA) | Maximum TT increase (number of times by which the initial time has been increased) (dog plasma [3]; 10 mg/kg) | Maximum ACT increase (number of times by which the initial time has been increased) (dog plasma [4]; 10 mg/kg) |
| --- | --- | --- | --- | --- | --- | --- | --- | --- | --- | --- |
| Cc1nc(N)ccc1CNC(=O)[C@@H]1CCc2cnc(NCC(c3ccccc3)c3ccccn3)c(=O)n21 (single isomer, unassigned) [Example 20] | 0.15 µM | 2.17 µM | 6 nM | 4.4 times | 1.4 times | – | – | – | – | – |
| Cc1nc(N)ccc1CNC(=O)[C@@H]1CCc2cnc(NCCc3ccccc3)c(=O)n21 [Example 1, (6S)-N-[(6-Amino-2-methyl-3-pyridyl)methyl]-4-oxo-3-(2-phenethylamino)-4,6,7,8-tetrahydropyrrolo[1,2-a]pyrazine-6-carboxamide dihydrochloride] | 3 µM | 9.1 µM | 34 nM | 3.6 times | 1.6 times | > 33 µM | > 33 µM | > 33 µM | – | – |
| Cc1nc(N)ccc1CNC(=O)[C@@H]1CCc2cnc(NCC(c3ccccc3)c3ccccc3)c(=O)n21.Cl.Cl [Example 6, (6S)-N-[(6-Amino-2-methyl-3-pyridyl)methyl]-3-[(2,2-diphenylethyl)amino]-4-oxo-4,6,7,8-tetrahydropyrrolo[1,2-a]pyrazine-6-carboxamide dihydrochloride] | 0.4 µM | 2.5 µM | 11 nM | – | – | > 33 µM | > 33 µM | > 33 µM | 6.2 times | 1.7 times |
| COc1ccc(CCNc2ncc3n(c2=O)[C@H](C(=O)NCc2ccc(N)nc2C)CC3)cc1OC.Cl.Cl.O [Example 7, (6S)-N-[(6-Amino-2-methyl-3-pyridyl)methyl]-3-[(3,4-dimethoxyphenethyl)amino]-4-oxo-4,6,7,8-tetrahydropyrrolo[1,2-a]pyrazine-6-carboxamide dihydrochloride monohydrate] | 3 µM | 9.1 µM | 42 nM | 2.5 times | 1.4 times | > 33 µM | > 33 µM | > 33 µM | – | – |
| Cc1nc(N)ccc1CNC(=O)[C@@H]1CCc2cnc(NCCc3ccccn3)c(=O)n21.Cl.Cl.Cl [Example 15, (6S)-N-[(6-Amino-2-methyl-3-pyridyl)methyl]-4-oxo-3-[2-(2-pyridyl)ethylamino]-4,6,7,8-tetrahydropyrrolo[1,2-a]pyrazine-6-carboxamide trihydrochloride] | 0.11 µM | 1.3 µM | 7 nM | 7 times | 1.6 times | > 33 µM | > 33 µM | > 33 µM | – | – |
| Cc1nc(N)ccc1CNC(=O)[C@@H]1CCc2cnc(NCCc3cccnc3)c(=O)n21.Cl.Cl.Cl [Example 16, (6S)-N-[(6-Amino-2-methyl-3-pyridyl)methyl]-4-oxo-3-[2-(3-pyridyl)ethylamino]-4,6,7,8-tetrahydropyrrolo[1,2-a]pyrazine-6-carboxamide trihydrochloride] | 0.17 µM | 1.6 µM | 17 nM | – | – | – | – | – | 13.3 times | 2.4 times |
| Cc1nc(N)ccc1CNC(=O)[C@@H]1CCc2cnc(NCC(c3ccccn3)c3ccccn3)c(=O)n21.Cl.Cl.Cl.Cl [Example 22, (6S)-N-[(6-Amino-2-methyl-3-pyridyl)methyl]-3-[2,2-di-(2-pyridyl)ethylamino]-4-oxo-4,6,7,8-tetrahydropyrrolo[1,2-a]pyrazine-6-carboxamide tetrahydrochloride] | 0.22 µM | 3.07 µM | 20 nM | – | – | – | – | – | 4.5 times | 1.5 times |
| COc1ccc(C(CNc2ncc3n(c2=O)[C@H](C(=O)NCc2ccc(N)nc2C)CC3)c2ccc(OC)cc2)cc1.Cl.Cl [Example 23, (6S)-N-[(6-Amino-2-methyl-3-pyridyl)methyl]-3-[2,2-bis-(4-methoxy-phenyl)ethylamino]-4-oxo-4,6,7,8-tetrahydropyrrolo[1,2-a]pyrazine-6-carboxamide dihydrochloride] | 0.24 µM | 2.75 µM | 3.9 nM | – | – | – | – | – | – | – |
| Cc1nc(N)ccc1CNC(=O)[C@@H]1CCc2cnc(NCC3c4ccccc4CCc4ccccc43)c(=O)n21 [Example 40, (6S)-N-[(6-Amino-2-methyl-3-pyridyl)methyl]-3-[(10,11-dihydro-5H-dibenzo[a,d]cyclohepten-5-yl)methylamino]-4-oxo-4,6,7,8-tetrahydropyrrolo[1,2-a]pyrazine-6-carboxamide dihydrochloride] | – | – | 43 nM | – | – | – | – | – | – | – |
| Cc1nc(N)ccc1CNC(=O)[C@@H]1CCc2cnc(NCCc3cccc4ccccc34)c(=O)n21 [Example 50, (6S)-N-[(6-Amino-2-methyl-3-pyridyl)methyl]-3-[2-(1-naphthyl)ethylamino]-4-oxo-4,6,7,8-tetrahydropyrrolo[1,2-a]pyrazine-6-carboxamide dihydrochloride] | – | – | 29 nM | – | – | – | – | – | – | – |
| Cc1cc(CNC(=O)[C@@H]2CCc3cnc(NCCc4ccccn4)c(=O)n32)c(C)nc1N.Cl.Cl.Cl [Example 68, (6S)-N-[(6-Amino-2,5-dimethyl-3-pyridyl)methyl]-3-[2-(2-pyridyl)ethylamino]-4-oxo-4,6,7,8-tetrahydropyrrolo[1,2-a]pyrazine-6-carboxamide trihydrochloride] | 0.23 µM | 2.04 µM | 16 nM | – | – | – | – | – | – | – |
| CCNC(=O)COc1ccccc1CNC(=O)[C@@H]1CCc2cnc(NCCc3ccccc3)c(=O)n21 [Example 71, (6S)-N-[(2-Ethylcarbamoylmethoxy)benzyl]-4-oxo-3-(2-phenethylamino)-4,6,7,8-tetrahydropyrrolo [1,2-a]pyrazine-6-carboxamide] | – | – | 13 nM | – | – | > 33 µM | > 33 µM | > 33 µM | – | – |
| COc1ccc(C(CNc2ncc3n(c2=O)C(C(=O)NCc2ccc(N)nc2C)CC3)c2ccc(OC)cc2)cc1.Cl.Cl (centres unmarked) [Example 98, N-[(6-Amino-2-methyl-3-pyridyl)-methyl]-3-[2,2-bis-(4-methoxy-phenyl)-ethylamino]-4-oxo-4,6,7,8-tetrahydropyrrolo[1,2-a]pyrazine-6-carboxamide dihydrochloride] | 0.33 µM | 3.54 µM | 8 nM | – | – | > 33 µM | > 33 µM | > 33 µM | 6.1 times | 1.4 times |
| CCNC(=O)COc1ccccc1CNC(=O)[C@@H]1CCc2cnc(NCC(c3ccccc3)c3ccccc3)c(=O)n21 [Example 103, (6S)-N-[(2-Ethylcarbamoylmethoxy)-benzyl]-4-oxo-3-(2,2-diphenylethylamino)-4,6,7,8-tetrahydropyrrolo[1,2-a]pyrazine-6-carboxamide hydrochloride] | – | – | 14 nM | – | – | – | – | – | – | – |
